From ChEMBL document CHEMBL4673372, “1,2,3-triazole-thiazole hybrids: Synthesis, in vitro antimicrobial activity and antibiofilm studies” (Bioorg Med Chem Lett, 2021)
≈ marks a conversion by molar mass, not a printed value.

The compounds below were run on Candida albicans (assay: Inhibition of biofilm formation in Candida albicans MTCC 3017 incubated for 24 hrs by crystal violet staining based microtiter plate method). Settings: Candida albicans, MTCC 3017, 24 h; read-out: IC50; call rule not given here.
Type: functional, organism-based
In the case of `Clc1ccc(COC(Cn2ccnc2)c2ccc(Cl)cc2Cl)c(Cl)c1` (configuration not stated) [MICONAZOLE], the IC50 is reported as 2500 nM.

These compounds were tested on Pseudomonas aeruginosa (assay: Inhibition of biofilm formation in Pseudomonas aeruginosa MTCC 2453 incubated for 24 hrs by crystal violet staining based microtiter plate method). Settings: not given.
Type: functional, organism-based
For `Clc1ccc(COC(Cn2ccnc2)c2ccc(Cl)cc2Cl)c(Cl)c1` (configuration not stated) [MICONAZOLE], the IC50 was “Not Active”.

Each compound was assayed on Escherichia coli (assay: Inhibition of biofilm formation in Escherichia coli MTCC 739 incubated for 24 hrs by crystal violet staining based microtiter plate method). Settings: not given.
Type: functional, organism-based
With `Clc1ccc(COC(Cn2ccnc2)c2ccc(Cl)cc2Cl)c(Cl)c1` (configuration not stated) [MICONAZOLE] the IC50 was “Not Active”.

These compounds were tested on Raoultella planticola (assay: Inhibition of biofilm formation in Klebsiella planticola MTCC 530 incubated for 24 hrs by crystal violet staining based microtiter plate method). Settings: not given.
Type: functional, organism-based
`Clc1ccc(COC(Cn2ccnc2)c2ccc(Cl)cc2Cl)c(Cl)c1` (configuration not stated) [MICONAZOLE] was tested, and the IC50 was “Not Active”.

Each compound was assayed on Micrococcus luteus (assay: Inhibition of biofilm formation in Micrococcus luteus MTCC 2470 incubated for 24 hrs by crystal violet staining based microtiter plate method). Settings: not given.
Type: functional, organism-based
`Clc1ccc(COC(Cn2ccnc2)c2ccc(Cl)cc2Cl)c(Cl)c1` (configuration not stated) [MICONAZOLE] was tested, and the IC50 was “Not Active”.

The compounds below were run on Bacillus subtilis (assay: Inhibition of biofilm formation in Bacillus subtilis MTCC 121 incubated for 24 hrs by crystal violet staining based microtiter plate method). Settings: not given.
Type: functional, organism-based
For `Clc1ccc(COC(Cn2ccnc2)c2ccc(Cl)cc2Cl)c(Cl)c1` (configuration not stated) [MICONAZOLE], the IC50 was “Not Active”.

Each compound was assayed on Staphylococcus aureus (assay: Inhibition of biofilm formation in Staphylococcus aureus MLS16 MTCC 2940 incubated for 24 hrs by crystal violet staining based microtiter plate method). Settings: not given.
Type: functional, organism-based
For `Clc1ccc(COC(Cn2ccnc2)c2ccc(Cl)cc2Cl)c(Cl)c1` (configuration not stated) [MICONAZOLE], the IC50 was “Not Active”.

Each compound was assayed on Staphylococcus aureus (assay: Inhibition of biofilm formation in Staphylococcus aureus […] incubated for 24 hrs by crystal violet staining based microtiter plate method). Settings: not given.
Type: functional, organism-based
In the case of `Clc1ccc(COC(Cn2ccnc2)c2ccc(Cl)cc2Cl)c(Cl)c1` (configuration not stated) [MICONAZOLE], the IC50 is reported as “Not Active”.

These compounds were tested on Pichia sporocuriosa (assay: Antifungal activity against Issatchenkia hanoiensis MTCC 4755). Settings: not given.
Type: functional
Work on `Clc1ccc(COC(Cn2ccnc2)c2ccc(Cl)cc2Cl)c(Cl)c1` (configuration not stated) [MICONAZOLE] yielded an MIC of 18.7 µM (≈ 7.78 µg/mL).

The compounds below were run on Pichia kudriavzevii (assay: Antifungal activity against Candida krusei MTCC 3020). Settings: not given.
Type: functional
`Clc1ccc(COC(Cn2ccnc2)c2ccc(Cl)cc2Cl)c(Cl)c1` (configuration not stated) [MICONAZOLE] showed an MIC of 18.7 µM (≈ 7.78 µg/mL).

Each compound was assayed on Nakaseomyces glabratus (assay: Antifungal activity against Candida glabrata MTCC 3019). Settings: not given.
Type: functional
`Clc1ccc(COC(Cn2ccnc2)c2ccc(Cl)cc2Cl)c(Cl)c1` (configuration not stated) [MICONAZOLE] was tested, and the MIC was 18.7 µM (≈ 7.78 µg/mL).

These compounds were tested on [Candida] aaseri (assay: Antifungal activity against Candida aaseri MTCC 1962). Settings: Yamadazyma aaseri.
Type: functional
For `Clc1ccc(COC(Cn2ccnc2)c2ccc(Cl)cc2Cl)c(Cl)c1` (configuration not stated) [MICONAZOLE], the MIC was 18.7 µM (≈ 7.78 µg/mL).

The compounds below were run on Candida parapsilosis (assay: Antifungal activity against Candida parapsilosis MTCC 1745). Settings: Lodderomyces parapsilosis.
Type: functional
Work on `Clc1ccc(COC(Cn2ccnc2)c2ccc(Cl)cc2Cl)c(Cl)c1` (configuration not stated) [MICONAZOLE] yielded an MIC of 18.7 µM (≈ 7.78 µg/mL).

These compounds were tested on Candida albicans (assay: Antifungal activity against Candida albicans MTCC 4748). Settings: not given.
Type: functional
For `Clc1ccc(COC(Cn2ccnc2)c2ccc(Cl)cc2Cl)c(Cl)c1` (configuration not stated) [MICONAZOLE], the MIC was 18.7 µM (≈ 7.78 µg/mL).

Each compound was assayed on Candida albicans (assay: Antifungal activity against Candida albicans MTCC 3958). Settings: not given.
Type: functional
For `Clc1ccc(COC(Cn2ccnc2)c2ccc(Cl)cc2Cl)c(Cl)c1` (configuration not stated) [MICONAZOLE], the MIC was 18.7 µM (≈ 7.78 µg/mL).

These compounds were tested on Candida albicans (assay: Antifungal activity against Candida albicans MTCC 3018). Settings: not given.
Type: functional
In the case of `Clc1ccc(COC(Cn2ccnc2)c2ccc(Cl)cc2Cl)c(Cl)c1` (configuration not stated) [MICONAZOLE], the MIC is reported as 18.7 µM (≈ 7.78 µg/mL).

The compounds below were run on Candida albicans (assay: Antifungal activity against Candida albicans MTCC 1637). Settings: not given.
Type: functional
`Clc1ccc(COC(Cn2ccnc2)c2ccc(Cl)cc2Cl)c(Cl)c1` (configuration not stated) [MICONAZOLE] showed an MIC of 18.7 µM (≈ 7.78 µg/mL).

These compounds were tested on Candida albicans (assay: Antifungal activity against Candida albicans MTCC 854). Settings: not given.
Type: functional
`Clc1ccc(COC(Cn2ccnc2)c2ccc(Cl)cc2Cl)c(Cl)c1` (configuration not stated) [MICONAZOLE] showed an MIC of 18.7 µM (≈ 7.78 µg/mL).

These compounds were tested on Pichia sporocuriosa (assay: Fungicidal activity against Issatchenkia hanoiensis MTCC 4755). Settings: not given.
Type: functional
`Clc1ccc(COC(Cn2ccnc2)c2ccc(Cl)cc2Cl)c(Cl)c1` (configuration not stated) [MICONAZOLE] was tested, and the MFC was 18.7 µM (≈ 7.78 µg/mL).

What follows are compounds tested on Nakaseomyces glabratus (assay: Fungicidal activity against Candida glabrata MTCC 3019). Settings: not given.
Type: functional
`Clc1ccc(COC(Cn2ccnc2)c2ccc(Cl)cc2Cl)c(Cl)c1` (configuration not stated) [MICONAZOLE] was tested, and the MFC was 18.7 µM (≈ 7.78 µg/mL).

These compounds were tested on Pichia kudriavzevii (assay: Fungicidal activity against Candida krusei MTCC 3020). Settings: not given.
Type: functional
Work on `Clc1ccc(COC(Cn2ccnc2)c2ccc(Cl)cc2Cl)c(Cl)c1` (configuration not stated) [MICONAZOLE] yielded an MFC of 18.7 µM (≈ 7.78 µg/mL).

Each compound was assayed on Candida parapsilosis (assay: Fungicidal activity against Candida parapsilosis MTCC 1745). Settings: Lodderomyces parapsilosis.
Type: functional
In the case of `Clc1ccc(COC(Cn2ccnc2)c2ccc(Cl)cc2Cl)c(Cl)c1` (configuration not stated) [MICONAZOLE], the MFC is reported as 18.7 µM (≈ 7.78 µg/mL).

These compounds were tested on [Candida] aaseri (assay: Fungicidal activity against Candida aaseri MTCC 1962). Settings: Yamadazyma aaseri.
Type: functional
Compound `Clc1ccc(COC(Cn2ccnc2)c2ccc(Cl)cc2Cl)c(Cl)c1` (configuration not stated) [MICONAZOLE] has an MFC of 18.7 µM (≈ 7.78 µg/mL).

These compounds were tested on Candida albicans (assay: Fungicidal activity against Candida albicans MTCC 3958). Settings: not given.
Type: functional
With `Clc1ccc(COC(Cn2ccnc2)c2ccc(Cl)cc2Cl)c(Cl)c1` (configuration not stated) [MICONAZOLE] the MFC was 18.7 µM (≈ 7.78 µg/mL).

Each compound was assayed on Candida albicans (assay: Fungicidal activity against Candida albicans MTCC 4748). Settings: not given.
Type: functional
In the case of `Clc1ccc(COC(Cn2ccnc2)c2ccc(Cl)cc2Cl)c(Cl)c1` (configuration not stated) [MICONAZOLE], the MFC is reported as 18.7 µM (≈ 7.78 µg/mL).

What follows are compounds tested on Candida albicans (assay: Fungicidal activity against Candida albicans MTCC 1637). Settings: not given.
Type: functional
Compound `Clc1ccc(COC(Cn2ccnc2)c2ccc(Cl)cc2Cl)c(Cl)c1` (configuration not stated) [MICONAZOLE] has an MFC of 18.7 µM (≈ 7.78 µg/mL).

Each compound was assayed on Candida albicans (assay: Fungicidal activity against Candida albicans MTCC 3018). Settings: not given.
Type: functional
With `Clc1ccc(COC(Cn2ccnc2)c2ccc(Cl)cc2Cl)c(Cl)c1` (configuration not stated) [MICONAZOLE] the MFC was 18.7 µM (≈ 7.78 µg/mL).

The compounds below were run on Candida albicans (assay: Fungicidal activity against Candida albicans MTCC 183). Settings: not given.
Type: functional
With `Clc1ccc(COC(Cn2ccnc2)c2ccc(Cl)cc2Cl)c(Cl)c1` (configuration not stated) [MICONAZOLE] the MFC was 18.7 µM (≈ 7.78 µg/mL).

Each compound was assayed on Candida albicans (assay: Fungicidal activity against Candida albicans MTCC 227). Settings: not given.
Type: functional
For `Clc1ccc(COC(Cn2ccnc2)c2ccc(Cl)cc2Cl)c(Cl)c1` (configuration not stated) [MICONAZOLE], the MFC was 18.7 µM (≈ 7.78 µg/mL).

These compounds were tested on Candida albicans (assay: Fungicidal activity against Candida albicans MTCC 854). Settings: not given.
Type: functional
Work on `Clc1ccc(COC(Cn2ccnc2)c2ccc(Cl)cc2Cl)c(Cl)c1` (configuration not stated) [MICONAZOLE] yielded an MFC of 18.7 µM (≈ 7.78 µg/mL).

What follows are compounds tested on Candida albicans (assay: Antifungal activity against Candida albicans MTCC 227). Settings: not given.
Type: functional
For `Clc1ccc(COC(Cn2ccnc2)c2ccc(Cl)cc2Cl)c(Cl)c1` (configuration not stated) [MICONAZOLE], the MIC was 18.7 µM (≈ 7.78 µg/mL).

Each compound was assayed on Candida albicans (assay: Antifungal activity against Candida albicans MTCC 183). Settings: not given.
Type: functional
With `Clc1ccc(COC(Cn2ccnc2)c2ccc(Cl)cc2Cl)c(Cl)c1` (configuration not stated) [MICONAZOLE] the MIC was 18.7 µM (≈ 7.78 µg/mL).
